{"source": "patent US20150266857A1", "about": "“NOVEL 3-INDOL SUBSTITUTED DERIVATIVES, PHARMACEUTICAL COMPOSITIONS AND METHODS FOR USE” (iTeos Therapeutics, priority 2014, published 2015)", "note": "Structures can show the parent of a compound that is named as a salt."}
{"target": "T1, human glioblastoma A172 cells, naturally expressing hTDO2 (Homo sapiens, UniProt P48775)", "T1 construct": "human glioblastoma A172 cells, naturally expressing hTDO2; endogenous in cells; host or cells: human glioblastoma A172 cells (ATCC CRL-1620)", "T1 sequence (P48775 whole entry)": "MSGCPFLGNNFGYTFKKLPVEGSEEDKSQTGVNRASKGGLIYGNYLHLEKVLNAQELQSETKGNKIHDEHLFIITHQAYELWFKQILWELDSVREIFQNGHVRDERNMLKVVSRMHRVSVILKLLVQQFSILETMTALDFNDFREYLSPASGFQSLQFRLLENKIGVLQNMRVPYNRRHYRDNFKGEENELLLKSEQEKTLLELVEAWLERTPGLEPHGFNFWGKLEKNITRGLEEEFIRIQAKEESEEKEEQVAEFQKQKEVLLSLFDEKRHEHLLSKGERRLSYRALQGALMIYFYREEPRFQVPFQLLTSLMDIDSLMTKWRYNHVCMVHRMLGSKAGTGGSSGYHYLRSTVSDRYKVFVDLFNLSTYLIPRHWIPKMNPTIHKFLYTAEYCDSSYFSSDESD", "assay": "Cellular assay for TDO2 activity, A172 cells", "type": "cell-based", "settings": "overnight incubation, kynurenine in supernatant", "description": "The compounds of formula I inhibit the activity of human TDO2 in cells that constitutively express TDO2, such as A172 cells. A172 is a cell line derived from human brain glioblastoma cells. The cells are available from the American Type Culture Collection (ATCC®) as CRL-1620™\nThe assay (adapted from Pilotte L et al., Proc Natl Acad Sci USA, 2012, 109(7), 2497-502) was performed in 96-well flat bottom plates seeded with human glioblastoma A172 cells, naturally expressing hTDO2 (prepared as described in Tilman et al., Mol Cancer, 2007, 17(6), 80), at a concentration of 1.25×10^4 cells/well in a final volume of 200 μL. To determine TDO, the cells were incubated overnight at 37° C. at 5% CO2 in IMDM (Invitrogen) supplemented with 2% FBS and 2% penicillin/streptomycin in the presence of the compounds of the present invention, at different concentrations.\nThe plates were then centrifuged 5 min at 1000 rpm, and 100 μL of the supernatant were collected in a conical plate, 30 uL of TCA 30% were added and a further centrifugated at 3000×g for 10 minutes. 100 μL of the supernatant were collected in a flat bottomed plate and 100 μL of 2% (w/v) 4-(dimethylamino)-benzaldehyde in acetic acid and incubated for 5 min at room temperature. Kynurenine concentrations were determined by measuring the absorbance at 480 nm. A standard curve was made with pure kynurenine. The TDO activity was measured as described above using ten serial concentrations of the compounds of the present invention. Data were fitted using the Prism™ software (GraphPad Software, Inc.) using standard parameters.", "units": {"IC50": "nM"}}
{"smiles": "C[C@@H]1CN[C@@H](C)CN1CCc1nc2ccc(-c3c[nH]c4cc(F)ccc34)cc2o1", "note": "(relative stereo) [Compound 141, 2-(2-(trans-2,5-dimethylpiperazin-1-yl)ethyl)-6-(6-fluoro-1H-indol-3-yl)benzo[d]oxazole]", "IC50": 340}
{"smiles": "Nc1nc2ccc(-c3c[nH]c4cc(F)ccc34)cc2[nH]1", "note": "[Compound 41, 6-(6-fluoro-1H-indol-3-yl)-1H-benzo[d]imidazol-2-amine]", "IC50": 1090}
{"smiles": "Fc1ccc2c(-c3ccc4nc(C5CCNCC5)oc4c3)c[nH]c2c1", "note": "[Compound 55, 6-(6-fluoro-1H-indol-3-yl)-2-(piperidin-4-yl)benzo[d]oxazole]", "IC50": 171}
{"smiles": "CC(=O)N1CCC(c2nc3ccc(-c4c[nH]c5cc(F)ccc45)cc3o2)CC1", "note": "[Compound 56, 1-(4-(6-(6-fluoro-1H-indol-3-yl)benzo[d]oxazol-2-yl)piperidin-1-yl)ethanone]", "IC50": 311}
{"smiles": "CS(=O)(=O)Nc1nc2ccc(-c3c[nH]c4cc(F)ccc34)cc2o1", "note": "[Compound 58, N-(6-(6-fluoro-1H-indol-3-yl)benzo[d]oxazol-2-yl)methanesulfonamide]", "IC50": 3770}
{"smiles": "Fc1ccc2c(-c3ccc4oc(CN5CCNCC5)nc4c3)c[nH]c2c1", "note": "[Compound 61, 5-(6-fluoro-1H-indol-3-yl)-2-(piperazin-1-ylmethyl)benzo[d]oxazole]", "IC50": 459}
{"smiles": "Fc1ccc2c(-c3ccc4oc(CN5CCOCC5)nc4c3)c[nH]c2c1", "note": "[Compound 63, 5-(6-fluoro-1H-indol-3-yl)-2-(morpholinomethyl)benzo[d]oxazole]", "IC50": 597}
{"smiles": "NC(=O)CCn1c(=O)oc2cc(-c3c[nH]c4cc(F)ccc34)ccc21", "note": "[Compound 67, 3-(6-(6-fluoro-1H-indol-3-yl)-2-oxobenzo[d]oxazol-3(2H)-yl)propanamide]", "IC50": 2520}
{"smiles": "NC(=O)Cn1c(=O)oc2ccc(-c3c[nH]c4cc(F)ccc34)cc21", "note": "[Compound 69, 2-(5-(6-fluoro-1H-indol-3-yl)-2-oxobenzo[d]oxazol-3(2H)-yl)acetamide]", "IC50": 3280}
{"smiles": "NC(=O)CCn1c(=O)oc2ccc(-c3c[nH]c4cc(F)ccc34)cc21", "note": "[Compound 71]", "IC50": 3530}
{"smiles": "Fc1ccc2c(-c3ccc4sccc4c3)c[nH]c2c1", "note": "[Compound 72, 3-(benzo[b]thiophen-5-yl)-6-fluoro-1H-indole]", "IC50": 442}
{"smiles": "CC(=O)NCc1nc2cc(-c3c[nH]c4cc(F)ccc34)ccc2o1", "note": "[Compound 73, N-((5-(6-fluoro-1H-indol-3-yl)benzo[d]oxazol-2-yl)methyl)acetamide]", "IC50": 363}
{"smiles": "NCc1nc2ccc(-c3c[nH]c4cc(F)ccc34)cc2o1", "note": "[Compound 76, (6-(6-fluoro-1H-indol-3-yl)benzo[d]oxazol-2-yl)methanamine hydrochloride]", "IC50": 440}
{"smiles": "Fc1ccc2c(-c3ccc4ccsc4c3)c[nH]c2c1", "note": "[Compound 79, 3-(benzo[b]thiophen-6-yl)-6-fluoro-1H-indole]", "IC50": 802}
{"smiles": "CS(=O)(=O)CCc1nc2cc(-c3c[nH]c4cc(F)ccc34)ccc2o1", "note": "[Compound 80, 5-(6-fluoro-1H-indol-3-yl)-2-(2-(methylsulfonyl)ethyl)benzo[d]oxazole]", "IC50": 842}
{"smiles": "NCc1nc2cc(-c3c[nH]c4cc(F)ccc34)ccc2o1", "note": "[Compound 81, (5-(6-fluoro-1H-indol-3-yl)benzo[d]oxazol-2-yl)methanamine]", "IC50": 1620}
{"smiles": "Fc1ccc2c(-c3ccc4occc4c3)c[nH]c2c1", "note": "[Compound 82, 3-(benzofuran-5-yl)-6-fluoro-1H-indole]", "IC50": 602}
{"smiles": "NC(=O)CCc1nc2ccc(-c3c[nH]c4cc(F)ccc34)cc2o1", "note": "[Compound 83, 3-(6-(6-fluoro-1H-indol-3-yl)benzo[d]oxazol-2-yl)propanamide]", "IC50": 154}
{"smiles": "NC(=O)Cn1cnc2ccc(-c3c[nH]c4cc(F)ccc34)cc21", "note": "[Compound 84, 2-(6-(6-fluoro-1H-indol-3-yl)-1H-benzo[d]imidazol-1-yl)acetamide]", "IC50": 1020}
{"smiles": "NC(=O)Cn1cnc2cc(-c3c[nH]c4cc(F)ccc34)ccc21", "note": "[Compound 85, 2-(5-(6-fluoro-1H-indol-3-yl)-1H-benzo[d]imidazol-1-yl)acetamide]", "IC50": 1330}
{"smiles": "O=C(CCn1ncc2cc(-c3c[nH]c4cc(F)ccc34)ccc21)N1CCOCC1", "note": "[Compound 86, 3-(5-(6-fluoro-1H-indol-3-yl)-1H-indazol-1-yl)-1-morpholinopropan-1-one]", "IC50": 646}
{"smiles": "CN1CCN(C(=O)CCn2ncc3cc(-c4c[nH]c5cc(F)ccc45)ccc32)CC1", "note": "[Compound 87, 3-(5-(6-fluoro-1H-indol-3-yl)-1H-indazol-1-yl)-1-(4-methylpiperazin-1-yl)propan-1-one]", "IC50": 298}
{"smiles": "CN(C)CCNC(=O)CCn1ncc2cc(-c3c[nH]c4cc(F)ccc34)ccc21", "note": "[Compound 88, N-(2-(dimethylamino)ethyl)-3-(5-(6-fluoro-H-indol-3-yl)-1H-indazol-1-yl)propanamide]", "IC50": 170}
{"smiles": "O=C(CCn1ncc2cc(-c3c[nH]c4cc(F)ccc34)ccc21)NCCO", "note": "[Compound 89, 3-(5-(6-fluoro-1H-indol-3-yl)-1H-indazol-1-yl)-N-(2-hydroxyethyl)propanamide]", "IC50": 205}
{"smiles": "CS(=O)(=O)CCNC(=O)CCn1ncc2cc(-c3c[nH]c4cc(F)ccc34)ccc21", "note": "[Compound 90, 3-(5-(6-fluoro-1H-indol-3-yl)-1H-indazol-1-yl)-N-(2-(methylsulfonyl)ethyl)propanamide]", "IC50": 240}
{"smiles": "O=C(CCn1ncc2cc(-c3c[nH]c4cc(F)ccc34)ccc21)N1CCNCC1", "note": "[Compound 91, 3-(5-(6-fluoro-1H-indol-3-yl)-1H-indazol-1-yl)-1-(piperazin-1-yl)propan-1-one]", "IC50": 213}
{"smiles": "O=C1Cc2ccc(-c3c[nH]c4cc(F)ccc34)cc2N1", "note": "[Compound 92, 6-(6-fluoro-1H-indol-3-yl)indolin-2-one]", "IC50": 508}
{"smiles": "NC(=O)CCn1cnc2ccc(-c3c[nH]c4cc(F)ccc34)cc21", "note": "[Compound 93, 3-(6-(6-fluoro-1H-indol-3-yl)-1H-benzo[d]imidazol-1-yl)propanamide]", "IC50": 1150}
{"smiles": "NC(=O)CCn1cnc2cc(-c3c[nH]c4cc(F)ccc34)ccc21", "note": "[Compound 94, 3-(5-(6-fluoro-1H-indol-3-yl)-1H-benzo[d]imidazol-1-yl)propanamide]", "IC50": 4640}
{"smiles": "COCCS(=O)(=O)NCc1nc2ccc(-c3c[nH]c4cc(F)ccc34)cc2o1", "note": "[Compound 99, N-((6-(6-fluoro-1H-indol-3-yl)benzo[d]oxazol-2-yl)methyl)-2-methoxyethanesulfonamide]", "IC50": 351}
{"smiles": "c1ccc2c(-c3ccc4[nH]ncc4c3)c[nH]c2c1", "note": "[Compound 104, 5-(1H-indol-3-yl)-1H-indazole]", "IC50": 464}
{"smiles": "c1ccc2c(-c3ccc4cn[nH]c4c3)c[nH]c2c1", "note": "[Compound 108, 6-(1H-indol-3-yl)-1H-indazole]", "IC50": 599}
{"smiles": "c1ccc2c(-c3ccc4ncoc4c3)c[nH]c2c1", "note": "[Compound 109, 6-(1H-indol-3-yl)benzo[d]oxazole]", "IC50": 446}
{"smiles": "Clc1ccc2c(-c3ccc4ocnc4c3)c[nH]c2c1", "note": "[Compound 111, 5-(6-chloro-1H-indol-3-yl)benzo[d]oxazole]", "IC50": 19000}
{"smiles": "Fc1ccc2c(-c3ccc4nc(S)oc4c3)c[nH]c2c1", "note": "[Compound 112, 6-(6-fluoro-1H-indol-3-yl)benzo[d]oxazole-2-thiol]", "IC50": 979}
{"smiles": "Fc1ccc2c(-c3ccc4nc(CC5CCNCC5)oc4c3)c[nH]c2c1", "note": "[Compound 113, 6-(6-fluoro-1H-indol-3-yl)-2-(piperidin-4-ylmethyl)benzo[d]oxazole]", "IC50": 284}
{"smiles": "CS(=O)(=O)NCc1nc2ccc(-c3c[nH]c4ccccc34)cc2o1", "note": "[Compound 114, N-((6-(1H-indol-3-yl)benzo[d]oxazol-2-yl)methyl)methanesulfonamide]", "IC50": 478}
{"smiles": "CN1CCC[C@H]1C(=O)NCc1nc2ccc(-c3c[nH]c4cc(F)ccc34)cc2o1", "note": "[Compound 115, (S)—N-((6-(6-fluoro-1H-indol-3-yl)benzo[d]oxazol-2-yl)methyl)-1-methylpyrrolidine-2-carboxamide]", "IC50": 349}
{"smiles": "COc1nc2ccc(-c3c[nH]c4cc(F)ccc34)cc2o1", "note": "[Compound 116, 6-(6-fluoro-1H-indol-3-yl)-2-methoxybenzo[d]oxazole]", "IC50": 372}
{"smiles": "NS(=O)(=O)NCc1nc2ccc(-c3c[nH]c4cc(F)ccc34)cc2o1", "note": "[Compound 117, Amino{[6-(6-fluoroindol-3-yl)benzoxazol-2-yl]methyl}sulfonamide]", "IC50": 278}
{"smiles": "c1ccc2c(-c3ccc4ocnc4c3)c[nH]c2c1", "note": "[Compound 118, 5-(1H-indol-3-yl)benzo[d]oxazole]", "IC50": 1530}
{"smiles": "CS(=O)(=O)N1CCC(Cc2nc3ccc(-c4c[nH]c5cc(F)ccc45)cc3o2)CC1", "note": "[Compound 119, 6-(6-fluoro-1H-indol-3-yl)-2-((1-(methylsulfonyl)piperidin-4-yl)methyl)benzo[d]oxazole]", "IC50": 1020}
{"smiles": "CS(=O)(=O)N1CCN(CCc2nc3ccc(-c4c[nH]c5cc(F)ccc45)cc3o2)CC1", "note": "[Compound 120, 6-(6-fluoro-1H-indol-3-yl)-2-(2-(4-(methylsulfonyl)piperazin-1-yl)ethyl)benzo[d]oxazole]", "IC50": 443}
